For data set [1] the following is noted: patients frequently exposed to ceftriaxone; cited from earlier work.
For data set [2] the following is noted: human, in vivo. As to the method: A patient with chronic active Epstein-Barr virus disease and hemophagocytic lymphohistiocytosis presented with ceftriaxone-induced hemolytic anemia. The patient had been evaluated in the emergency department for fever and possible sepsis after recently receiving chemotherapy. In the emergency department they received a dose of ceftriaxone (50 mg/kg). The patient had received ceftriaxone on three previous occasions with no history of adverse reaction. Within an hour they developed back pain, tachycardia and tachypnea. Over the next three hours they developed worsening distress, failed continuous positive airway pressure and required endotracheal intubation with mechanical ventilation. They also experienced hypotension requiring fluid resuscitation and a continuous epinephrine infusion.
Four hours later, their hemoglobin had decreased to 6.1 g/dL, followed by a point-of-care hemoglobin of 5.1 g/dL. They received four packed red blood cell transfusions (each 10 mL/kg) within 72 hours, after which, their hemoglobin stabilized at their initial baseline (FIG. 1A). […] There were spherocytes on their peripheral blood smear as well as red blood cell aggregation. On admission, one day later, and five days later, their total bilirubin level was 1.5 mg/dL, 10.7 mg/dL, and 23.1 mg/dL respectively, with 90% being conjugated. […]

Data set [3] in a line: PIC1 administered to a patient with ceftriaxone-induced hemolysis (Example 2). In kind it is in vivo, human. As for the experimental part: A patient is tested for possible hemolysis as a result of treatment with ceftriaxone. The patient has an erythrocyte hemoglobin level of 6.5 g/dL, a total bilirubin level of 12.4 mg/dL, and an LDH of 16,500. The patient receives packed red blood cell transfusion, and ceftriaxone is discontinued.
Four hours later, the patient has an erythrocyte hemoglobin level of 7.9 g/dL, a total bilirubin level of 8.4 mg/dL, and an LDH of 10,500, all of which show improvement. […] The bilirubin and LDH levels continue to improve. The patient receives additional packed red blood cell transfusions as needed.

In data set [4] the test system is classical complement pathway. Conditions: 0.75 mM PIC1 and ceftriaxone together.
Description: The CHUHE assay utilizes human serum and human erythrocytes to measure complement-mediated hemolysis for the specific serum and specific erythrocytes that are co-incubated.
The patient's blood and sera were provided as discarded de-identified samples from residual specimens in the Blood Bank. […] Standard veronal complement buffers were utilized.
The modified CHUHE assay was performed as follows. The patient's sera (0.1 ml) was combined with ceftriaxone (10 μg/ml final concentration) in an ice-water bath for 30 minutes to enhance immune complex formation. This solution was then warmed to 24° C. […] Samples were incubated at 37° C. for one hour, with hemolysis stopped by the addition of 2.0 ml of GVBS-EDTA buffer (veronal-buffered saline with 0.1% gelatin and 10 mM EDTA). Erythrocytes were sedimented, and free hemoglobin was measured by spectrophotometry at 412 nm. Two independent experiments (n=2) were performed. Without wishing to be bound by theory, adaptation of the CHUHE hemolytic assay by adding exogenous ceftriaxone to the patient's serum and erythrocytes allowed for evaluation as to whether the hemolysis was ceftriaxone-initiated.

Read-outs that look alike come from different tables or passages of the source. Ends that are not written are not given here.

With `CO/N=C(\C(=O)N[C@@H]1C(=O)N2C(C(=O)O)=C(CSc3nc(=O)c(=O)[nH]n3C)CS[C@H]12)c1csc(N)n1` [ceftriaxone, reference compound], the “patients developing anti-ceftriaxone antibodies” value in data set [1] is given as 12.5%. Also, in data set [2], the total bilirubin level was found to be 23.1 mg/dL.
“IALILEPICCQERAA-dPEG24 (cysteine pairing not given here) [PIC1]”: in data set [3] (150 mg/kg PIC1, then daily dose for three days, with transfusions as needed), the clinical outcome is on record as “completely recovered from the hemolysis”. For the same compound, the total bilirubin level in data set [3] (four hours after 150 mg/kg PIC1, 12.4 mg/dL before) is reported as 8.4 mg/dL. Moreover, the erythrocyte hemoglobin level in data set [3] (four hours after 150 mg/kg PIC1, 6.5 g/dL before) is given as 7.9 g/dL. Moreover, the LDH in data set [3] (four hours after 150 mg/kg PIC1, 16,500 before) is reported as 10,500. In data set [4], the “hemolysis relative to the no ceftriaxone control” value was “returned hemolysis to the level of the no ceftriaxone control”.

Values taken from patent publication US20210228695A1 (REALTA HOLDINGS, LLC, priority 2018, published 2021).
